Data published in US12227482B2, “Compounds and compositions for the treatment of cancer” (The Regents of the University of California, priority 2016, dated 2025).

Key:
Assay type in all cases: cell-based
[1] = tested on: MelJuSo cells; assay: Cell viability (CellTiter-Glo ATP content) in MelJuSo cells; conditions: Homo sapiens, MEL-JUSO, 72 hours treatment, cell survival by CellTiter-Glo, 2% fetal bovine serum
Method: (§1) Logarithmically growing A549, LOX and MelJuSo cells (ATCC) were plated in antibiotic-free RPMI medium (Coming) supplemented with 2% fetal bovine serum (Gemini Bio-products) at a density of 5,000 cells per well in clear-bottom 96-well plates. The next day cells were treated (triplicates) with increasing doses of a compound of the present disclosure (dissolved in DMSO) and DMSO vehicle controls (final DMSO concentration of 0.5%) for 72 hours and subsequently assessed for cell viability by measuring ATP content with CellTiter-Glo Luminescent Cell Viability Assay (Promega). Signal intensity was measured on a Glomax™ 96 Microplate Luminometer (Promega) and percent cell survival was calculated based on the reading of vehicle control cells set as 100%.

[2] = tested on: LOX cells; assay: Cell viability (CellTiter-Glo ATP content) in LOX cells; conditions: LOX, 72 h, 72 hours treatment, cell survival by CellTiter-Glo, 2% fetal bovine serum
Method: as §1

[3] = tested on: A549 cells; assay: Cell viability (CellTiter-Glo ATP content) in A549 cells; conditions: Homo sapiens, A549, 72 h, 72 hours treatment, cell survival by CellTiter-Glo, 2% fetal bovine serum
Method: as §1

SMILES	IC50 [1] [µM]	IC50 [2] [µM]	IC50 [3] [µM]
CON(C)C(=O)CNC(=O)C1(C)C(c2cccs2)C(c2ccc(F)cc2)=NN1c1ccc(F)cc1F (centres unmarked) [Compound 111, 1-(2,4-difluorophenyl)-3-(4-fluorophenyl)-N-(2-(methoxy(methyl)amino)-2-oxoethyl)-5-methyl-4-(thiophen-2-yl)-4,5-dihydro-1H-pyrazole-5-carboxamide]	> 2	> 2	> 2
CC(C)(CO)CCCNC(=O)C1(C)C(c2ccc(F)cc2F)=NN(c2ccc(F)cc2F)C1c1ccc(Cl)o1 (centres unmarked) [Compound 136, 5-(5-chlorofuran-2-yl)-1,3-bis(2,4-difluorophenyl)-N-(5-hydroxy-4,4-dimethylpentyl)-4-methyl-4,5-dihydro-1H-pyrazole-4-carboxamide]	1 to 2	> 2	> 2
CCCCC1C(c2ccc(F)cc2)=NN(c2ccccc2)C1(C)C(=O)NCCCC(C)(C)CO (centres unmarked) [Compound 1, 4-butyl-3-(4-fluorophenyl)-N-(5-hydroxy-4,4-dimethylpentyl)-5-methyl-1-phenyl-4,5-dihydro-1H-pyrazole-5-carboxamide]	0.25 to 0.5	0.5 to 1	0.5 to 1
CCCCC1C(c2ccc(F)cc2)=NN(c2ccc(F)c(OC)c2)C1(C)C(=O)NCCCOC (centres unmarked) [Compound 19, 4-butyl-1-(4-fluoro-3-methoxyphenyl)-3-(4-fluorophenyl)-N-(3-methoxypropyl)-5-methyl-4,5-dihydro-1H-pyrazole-5-carboxamide]	> 2	> 2	> 2
CC1(C(=O)NCC(=O)N2CCOCC2)C(c2cccs2)C(c2ccc(F)cc2)=NN1c1ccc(F)cc1F (centres unmarked) [Compound 106, 1-(2,4-difluorophenyl)-3-(4-fluorophenyl)-5-methyl-N-(2-morpholino-2-oxoethyl)-4-(thiophen-2-yl)-4,5-dihydro-1H-pyrazole-5-carboxamide]	> 2	> 2	> 2
CCCCC1C(c2ccc(Cl)cc2F)=NN(c2ccccc2)C1(C)C(=O)NCCCC(C)(C)CO (centres unmarked) [Compound 53, 4-butyl-3-(4-chloro-2-fluorophenyl)-N-(5-hydroxy-4,4-dimethylpentyl)-5-methyl-1-phenyl-4,5-dihydro-1H-pyrazole-5-carboxamide]	> 2	> 2	> 2
CN1CCOC(CNC(=O)C2(C)C(c3cccs3)C(c3ccc(F)cc3)=NN2c2ccc(F)cc2F)C1 (centres unmarked) [Compound 127, 1-(2,4-difluorophenyl)-3-(4-fluorophenyl)-5-methyl-N-((4-methylmorpholin-2-yl)methyl)-4-(thiophen-2-yl)-4,5-dihydro-1H-pyrazole-5-carboxamide]	< 0.25	0.5 to 1	0.5 to 1
COCCNC(=O)C1(C)C(c2ccsc2)C(c2ccc(F)cc2F)=NN1c1ccc(F)cc1F (centres unmarked) [Compound 118, 1,3-bis(2,4-difluorophenyl)-N-(2-methoxyethyl)-5-methyl-4-(thiophen-3-yl)-4,5-dihydro-1H-pyrazole-5-carboxamide]	< 0.25	< 0.25	< 0.25
COCCNC(=O)C1(C)C(c2ccc(Cl)o2)C(c2ccc(F)cc2F)=NN1c1ccc(F)cc1F (centres unmarked) [Compound 120, 4-(5-chlorofuran-2-yl)-1,3-bis(2,4-difluorophenyl)-N-(2-methoxyethyl)-5-methyl-4,5-dihydro-1H-pyrazole-5-carboxamide]	< 0.25	< 0.25	< 0.25
CC(C)(CO)CCCNC(=O)C1(C)C(c2ccoc2)C(c2ccc(F)cc2F)=NN1c1ccc(F)cc1F (centres unmarked) [Compound 129, 1,3-bis(2,4-difluorophenyl)-4-(furan-3-yl)-N-(5-hydroxy-4,4-dimethylpentyl)-5-methyl-4,5-dihydro-1H-pyrazole-5-carboxamide]	0.25 to 0.5	0.5 to 1	0.5 to 1
CC(C)(CO)CCCNC(=O)C1(C)C(c2cccs2)C(c2ccc(F)cc2)=NN1c1ccccc1 (centres unmarked) [Compound 20, 3-(4-fluorophenyl)-N-(5-hydroxy-4,4-dimethylpentyl)-5-methyl-1-phenyl-4-(thiophen-2-yl)-4,5-dihydro-1H-pyrazole-5-carboxamide]	0.25 to 0.5	0.5 to 1	0.5 to 1
CCCCC1C(c2ccc(F)cc2)=NN(c2ccc(C(F)(F)F)cc2)C1(C)C(=O)NCCCC(C)(C)CO (centres unmarked) [Compound 28, 4-butyl-3-(4-fluorophenyl)-N-(5-hydroxy-4,4-dimethylpentyl)-5-methyl-1-(4-(trifluoromethyl)phenyl)-4,5-dihydro-1H-pyrazole-5-carboxamide]	1 to 2	1 to 2	> 2
CCCCC1C(c2ccc(F)cc2)=NN(c2ccccc2)C1(C)C(=O)NCc1ccc(CN2CCOCC2)cc1 (centres unmarked) [Compound 80, 4-butyl-3-(4-fluorophenyl)-5-methyl-N-(4-(morpholinomethyl)benzyl)-1-phenyl-4,5-dihydro-1H-pyrazole-5-carboxamide]	> 2	> 2	> 2
CCCCC1C(c2ccc(F)cc2)=NN(c2ccc(Cl)cc2C)C1(C)C(=O)NCCCOC (centres unmarked) [Compound 30, 4-butyl-1-(4-chloro-2-methylphenyl)-3-(4-fluorophenyl)-N-(3-methoxypropyl)-5-methyl-4,5-dihydro-1H-pyrazole-5-carboxamide]	> 2	> 2	> 2
CC1(C(=O)NCC(=O)NC2COC2)C(c2cccs2)C(c2ccc(F)cc2)=NN1c1ccc(F)cc1F (centres unmarked) [Compound 108, 1-(2,4-difluorophenyl)-3-(4-fluorophenyl)-5-methyl-N-(2-(oxetan-3-ylamino)-2-oxoethyl)-4-(thiophen-2-yl)-4,5-dihydro-1H-pyrazole-5-carboxamide]	> 2	> 2	> 2
CCCCC1C(c2ccc(F)cc2)=NN(c2ccc(F)c(OC)c2)C1(C)C(=O)NCCCC(C)(C)CO (centres unmarked) [Compound 18, 4-butyl-1-(4-fluoro-3-methoxyphenyl)-3-(4-fluorophenyl)-N-(5-hydroxy-4,4-dimethylpentyl)-5-methyl-4,5-dihydro-1H-pyrazole-5-carboxamide]	> 2	> 2	> 2
CC(C)(CO)CCCNC(=O)C1(C)C(c2ccsc2)C(c2ccc(F)cc2F)=NN1c1ccc(F)cc1F (centres unmarked) [Compound 117, 1,3-bis(2,4-difluorophenyl)-N-(5-hydroxy-4,4-dimethylpentyl)-5-methyl-4-(thiophen-3-yl)-4,5-dihydro-1H-pyrazole-5-carboxamide]	0.25 to 0.5	0.5 to 1	0.5 to 1
CC(C)(CO)CCCNC(=O)C1(C)C(c2ccco2)C(c2ccc(F)cc2)=NN1c1ccc(F)cc1F (centres unmarked) [Compound 91, 1-(2,4-difluorophenyl)-3-(4-fluorophenyl)-4-(furan-2-yl)-N-(5-hydroxy-4,4-dimethylpentyl)-5-methyl-4,5-dihydro-1H-pyrazole-5-carboxamide]	< 0.25	0.25 to 0.5	0.25 to 0.5
CC(C)(CO)CCCNC(=O)C1(C)C(c2ccsc2)C(c2ccc(F)cc2)=NN1c1ccc(F)cc1F (centres unmarked) [Compound 85, 1-(2,4-difluorophenyl)-3-(4-fluorophenyl)-N-(5-hydroxy-4,4-dimethylpentyl)-5-methyl-4-(thiophen-3-yl)-4,5-dihydro-1H-pyrazole-5-carboxamide]	< 0.25	< 0.25	0.25 to 0.5
CCCCC1C(c2ccc(F)cc2)=NN(c2ccccc2)C1(C)C(=O)NCc1ccc(Cl)c(Cl)c1 (centres unmarked) [Compound 40, 4-butyl-N-(3,4-dichlorobenzyl)-3-(4-fluorophenyl)-5-methyl-1-phenyl-4,5-dihydro-1H-pyrazole-5-carboxamide]	> 2	> 2	> 2
COCCNC(=O)C1(C)C(c2cnn(C)c2)C(c2ccc(F)cc2)=NN1c1ccc(F)cc1F (centres unmarked) [Compound 96, 1-(2,4-difluorophenyl)-3-(4-fluorophenyl)-N-(2-methoxyethyl)-5-methyl-4-(1-methyl-1H-pyrazol-4-yl)-4,5-dihydro-1H-pyrazole-5-carboxamide]	> 2	–	> 2
Cn1cc(C2C(c3ccc(F)cc3)=NN(c3ccc(F)cc3F)C2(C)C(=O)NCCCC(C)(C)CO)cn1 (centres unmarked) [Compound 95, 1-(2,4-difluorophenyl)-3-(4-fluorophenyl)-N-(5-hydroxy-4,4-dimethylpentyl)-5-methyl-4-(1-methyl-1H-pyrazol-4-yl)-4,5-dihydro-1H-pyrazole-5-carboxamide]	> 2	–	> 2
Cn1cccc1C1C(c2ccc(F)cc2)=NN(c2ccc(F)cc2F)C1(C)C(=O)NCCCC(C)(C)CO (centres unmarked) [Compound 93, 1-(2,4-difluorophenyl)-3-(4-fluorophenyl)-N-(5-hydroxy-4,4-dimethylpentyl)-5-methyl-4-(1-methyl-1H-pyrrol-2-yl)-4,5-dihydro-1H-pyrazole-5-carboxamide]	> 2	–	> 2
COCCNC(=O)C1(C)C(c2cccn2C)C(c2ccc(F)cc2)=NN1c1ccc(F)cc1F (centres unmarked) [Compound 94, 1-(2,4-difluorophenyl)-3-(4-fluorophenyl)-N-(2-methoxyethyl)-5-methyl-4-(1-methyl-1H-pyrrol-2-yl)-4,5-dihydro-1H-pyrazole-5-carboxamide]	> 2	–	> 2
